Results as given in PMC7712428, “Dimethoate Induces DNA Damage and Mitochondrial Dysfunction Triggering Apoptosis in Rat Bone-Marrow and Peripheral Blood Cells” (Toxics, 2020).
Like-named read-outs stand apart in the source and are kept apart here. Marks after values point to notes of the source that are not given here.

Columns and labels:
[1] = tested on: bone marrow cells; details: 40 mg/kgbw i.p.; for P/N: PCE:NCE ratio
Description: (§1) The experimental animals—Rattus norvegicus (Wistar strain; 8–10 weeks old; 120 ± 20 gm; males only) were acquired from Indian Institute of Integrative Medicine (IIIM-CSIR) (Jammu, India), quarantined, acclimatized and sacrificed as per standard practice conforming to the University Ethical Regulations. After acclimatization, rats were divided into five groups by stratified randomization with five animals per group. […] Distilled water was used to prepare dosing solutions of test agent and injected via intraperitoneal (i.p.) injection. At 24, 48 and 72 h post-dosing, 5 rats per duration were sacrificed and necessary tissues were isolated for different cytogenetic and molecular parameters. For CA assessment, separate experimental lot was used due to colchicine treatment.
MN assay followed the protocol of Schmid. Immediately after sacrificing the animals, both femurs were removed from the pelvic bone and freed from the extra muscles. After cutting the epiphyses, the bone marrow was collected by gentle flushing with 2 mL FBS. Centrifuge cell suspension at 1000 rpm for 5 min and discarded the supernatant. The pellets obtained were saved in 50 μL fresh FBS. Re-suspended the cell pellet and a small drop was spread onto clean grease-free glass slides and dried in air. By using absolute methanol, the smears were fixed for 10min following the staining by May-Grunwald / buffered Giemsa at pH 6.8. Micronuclei and the ratio of polychromatic erythrocyte (PCE) to normochromatic erythrocyte (NCE) i.e., P/N were scored. The micronucleus frequencies (indicated as mean percent micronucleated cells) were examined by considering the micronucleated PCEs number (MNPCEs) from at least 2000 PCEs/animal. Cytotoxic effect of test compound was evaluated by calculating the PCE:NCE ratio in at least 1000 erythrocytes per animal. For final observation, DPX mounted slides were photographed at 100× with oil immersion (Olympus U—PMTV microscope mounted with optical zoom camera).

[2] = tested on: bone marrow cells; details: 40 mg/kgbw; for Total Aberrations (Mean ± SD): mean percentage; for MI (Mean ± SD): mitotic index mean percentage; for Structural Aberrations Assoc: number of associations; for Structural Aberrations Brk: number of breaks; for Structural Aberrations Del: number of deletions; for Structural Aberrations Dcn: number of dicentrics; for Structural Aberrations Frag: number of fragments; for Structural Aberrations Gp: number of gaps; for Structural Aberrations Ring: number of rings
Description: as §1
Method of Preston et al. was used for preparing the metaphase chromosomes. An aqueous solution of Colchicine (4 mg/kgbw) was injected intraperitoneally 2 h prior to sacrificing the animal. Pre-warm KCL (0.075 M) solution was used to collect the bone marrow cells followed by incubation at 37 °C for 20 min, and then centrifuge at 1000 rpm for 10 min. After fixing the pellet in cold Cornoy’s fixative dropped onto clean pre-chilled glass slide in 30% ethanol and dried in air. 5% buffered Giemsa (pH 7.0) was used for staining. Chromosomal aberrations were analyzed on properly separated metaphases and finally photographed at 100× (Olympus U—PMTV microscope), using oil immersion. The metaphase cells from approximately 1000 cells per concentration per animal both in exposed and control replicates, expressed in percentage were considered for mitotic indices (MI).

[3] = tested on: peripheral blood cells; details: Mean ± SD, 40 mg/kgbw
Description: as §1
Detection of DNA strand break was performed according to protocol of Singh et al. with some modifications. Briefly, blood was collected using Retro-orbital bleeding during euthanasia. 10μL whole blood cells obtained were mixed with 75 µL of 0.5% LMPA and layered onto frosted slides which was pre-coated with NMA. After putting cover slip, slides were kept for 5–10min. After gelling, removed cover slip gently and added a layer of 90 μL of LMPA. After replacing the cover slip, slides were placed on the slide tray (ice packs) till the agarose layer hardened (5–10 min). Following this, removed the cover slip and by gently immersing the slides in lysis buffer embedded cells were lysed. Cells lysis was performed in cold conditions for a minimum of 2 h in lysing solution.
Alkaline conditions (pH > 13) were used to perform the electrophoresis. After lysis, slides were subjected in electrophoretic buffer at 4 °C for 40 min to achieve the DNA denaturation that allow the DNA unwinding and the expression of alkali labile site. Electrophoresis was then carried out at 0.74 V/cm for 40 min (300 mA; 24 volts) at 4 °C by raising or lowering buffer. Thereafter, neutralization buffer (0.4 M Tris, 10 M HCl; pH = 7.5) were employed to wash the slides. Slides were stained by 80 μL of 1× Ethidium Bromide and excess stain was removed by dipping in chilled distilled water. Slides were examined at 40× magnification under fluorescence microscope coupled with a charge coupled device camera (Olympus).

[4] = tested on: Platelets; details: 72 h treatment

O=P1(N(CCCl)CCCl)NCCCO1 (stereo not shown) [Cyclophosphamide, reference compound]
MNPCE (Mean% ± SD) ([1]; 24 h): 10.6 ± 0.81 %
MNPCE (Mean% ± SD) ([1]; 48 h): 8.2 ± 0.66 %
MNPCE (Mean% ± SD) ([1]; 72 h): 7.1 ± 0.43 %
P/N ([1]; 24 h): 0.604 *
P/N ([1]; 48 h): 0.529 **
P/N ([1]; 72 h): 0.581 **
Total Aberrations (Mean ± SD) ([2]; 24 h): 17.50 ± 3.33 ***^,a %
Total Aberrations (Mean ± SD) ([2]; 48 h): 13.66 ± 2.56 ***^,a %
Total Aberrations (Mean ± SD) ([2]; 72 h): 10.66 ± 2.61 ***^,a %
MI (Mean ± SD) ([2]; 24 h): 1.52 ± 0.05 **^,a %
MI (Mean ± SD) ([2]; 48 h): 1.56 ± 0.05 **^,a %
MI (Mean ± SD) ([2]; 72 h): 1.63 ± 0.03 **^,a %
Structural Aberrations Assoc ([2]; 24 h): 9
Structural Aberrations Assoc ([2]; 48 h): 7
Structural Aberrations Assoc ([2]; 72 h): 4
Structural Aberrations Brk ([2]; 24 h): 14
Structural Aberrations Brk ([2]; 48 h): 12
Structural Aberrations Brk ([2]; 72 h): 9
Structural Aberrations Del ([2]; 24 h): 23
Structural Aberrations Del ([2]; 48 h): 18
Structural Aberrations Del ([2]; 72 h): 15
Structural Aberrations Dcn ([2]; 24 h): 25
Structural Aberrations Dcn ([2]; 48 h): 18
Structural Aberrations Dcn ([2]; 72 h): 14
Structural Aberrations Frag ([2]; 24 h): 26
Structural Aberrations Frag ([2]; 48 h): 21
Structural Aberrations Frag ([2]; 72 h): 19
Structural Aberrations Gp ([2]; 24 h): 20
Structural Aberrations Gp ([2]; 48 h): 16
Structural Aberrations Gp ([2]; 72 h): 13
Structural Aberrations Ring ([2]; 24 h): 8
Structural Aberrations Ring ([2]; 48 h): 6
Structural Aberrations Ring ([2]; 72 h): 3
Olive Tail Moment ([3]; 24 h): 12.52 ± 0.81 ***^,a
Tail Length (µm) ([3]; 24 h): 51.01 ± 3.71 ***^,a µm
Olive Tail Moment ([3]; 48 h): 11.28 ± 0.84 ***^,a
Tail Length (µm) ([3]; 48 h): 40.91 ± 2.86 ***^,a µm
Olive Tail Moment ([3]; 72 h): 8.23 ± 0.73 ***^,a
Tail Length (µm) ([3]; 72 h): 38.51 ± 1.05 ***^,a µm
MMP loss (membrane potential loss) [4]: 81.1%
